Source: patent US12612389B2, “Benzofuran-based N-acylhydrazone derivative and pharmaceutical composition comprising same” (KOREA RESEARCH INSTITUTE OF BIOSCIENCE AND BIOTECHNOLOGY, priority 2019, dated 2026)
Where two headings read alike, the source gives them in different places.

Key:
Stability test in plasma [1] = format: in vitro ADME; conditions: Rat plasma, 37° C.; for Residue % (180 minutes elapsed), Mean: 5 mM
Description: (§1) In order to test the stability (in vivo) of the Example compounds according to the present invention, the compounds of Examples 2, 3, 4, 8 and 15 were administered intravenously, and plasma concentrations over time were observed. In addition, procaine was used as a positive control. Plasma stability was measured three times by administering the test compound at a concentration of 5 mM to human, rat, or mouse plasma (90 μL) at 37° C. Results thereof are shown in Table below and FIGS. 3A to 3E.

[2] = Stability in buffer (line of the metabolic stability test); format: in vitro ADME
Description: (§2) The test compounds at a concentration of […] were administered in the presence or absence of NADPH (1 mM) to liver […] (0.5 mg protein/mL) of humans, rats and mice, and metabolic stability was tested at 37° C. for 30 minutes. In addition, buspirone was used as a positive control. Results thereof are shown in Table below and FIGS. 4A to 4E.

HeLa CCL2 tumor = test: Anticancer effect test in human cervical cancer cell (HeLa CCL2) transplantation model; format: in vivo, BALB/C female nude mouse; conditions: 25 mg/kg intraperitoneally, p<0.001; for tumor growth inhibition: 0-28 days, Day 28, tumor size; for reduction in tumor weight compared with solvent control: excised tumor
Description: After thawing the human […] cancer cell line HeLa CCL2 that was stored frozen in liquid nitrogen, cell culture was performed. The cells were cultured for an appropriate period in a CO2 incubator (Forma, USA) at a temperature of 37° C. and a CO2 concentration of 5%.
On the last day of culture, all cancer cells were collected and counted, and the cell concentration was adjusted to 1×10^7 cells/mL using serum free media. The cell culture solution as adjusted above was injected subcutaneously into the axillary region between the shoulder blade and the chest wall in an amount of 0.3 mL (3×10^6 cells/mouse) per BALB/C female nude mouse (5 weeks old, Nara Biotech).
Immediately prior to administration, the compounds were dissolved in a mixture of DMAC (dimethylacetamide) 20%+Tween80 5%+20% HPbCD (2-hydroxypropyl-β-cyclodextrin) 75% at an appropriate concentration and used. The prepared substances were repeatedly administered intraperitoneally in an amount of 0.2 mL (10 mL/kg) per 20 g of a mouse according to the following administration schedule. • carrier, the compound of Example 4, the compound of Example 8, and the compound of Example 15 (25 mg/kg), 0-28 days 4.3. Confirmation of Change in Tumor Size
After cancer cell transplantation, the tumor size of each animal subject was measured a total of 11 times in 3 directions using a vernier caliper from when the mean tumor size reached 57.0 mm^3 until Day 28, and calculated by the formula of length×width×height/2.
In order to test the degree of toxicity upon repeated intraperitoneal administration of the Example compound to HeLa CCL2 cancer cell transplantation nude mice, general symptoms and body weight changes of the animal subjects were observed during the administration period.
On Day 28 after drug administration, blood was collected from the mouse ophthalmic veins in 2 hours post the last administration, and the mice were killed using CO2 gas. Images of the mice were taken, and the tumor was separated and weighed on an electronic scale. After taking the images, each tumor was divided in half and fixed in liquid nitrogen and formalin, respectively. On […] after drug administration, the HeLa CCL2 tumor was excised and weighed.

[3] = Solubility test in administration solvent; format: physicochemical; conditions: 2.0 mg/mL, Solvent A 20%
Description: The test substances were accurately weighed and placed in a glass vial. Then, solvent A was added in an amount corresponding to 20% of the desired final solution volume, and the mixture was completely dissolved by treatment with a vortexer and sonication. Next, solvent B in an amount corresponding to 10% or 20% of the final solution volume was added and mixed well. […] Finally, the mixture was subjected to sonication for 30 seconds. The mixed solution was prepared and used immediately before administration in the experiment. • Solvent A: Dimethylacetamide produced by SigmaAldrich • Solvent B: Cremophor EL produced by SigmaAldrich • Solvent C: 20% HPbCD ((2-Hydroxypropyl)-β-cyclodextrin produced by SigmaAldrich) in deionized water

HeLa cells = test: Anti-proliferative activity test in HeLa cell line (MTT); format: cell-based; conditions: Homo sapiens, 48 h, grown for 2 days, mean of 2
Description: HeLa cells (American Type Culture Collection: ATCC, USA), a human cervical cancer cell line, were seeded in a 96-well plate at 3×10^3 cells/well, and the cells were then treated with compounds of Examples or Comparative Example according to the present invention and grown for 2 days. Then, MTT (3-(4,5-dimethylthiazol-2-yl)-2,5-diphenyltetrazolium bromide) reagent was added at 10 μL/well. After 2 hours, absorbance was measured at “OD 450” and statistical values were obtained using Prism™6 program. The data shown in Table below are mean values of results obtained by repeating the analysis twice.

[4] = Pharmacokinetic (PK) test; format: in vivo, male ICR mice; conditions: for F, Mean: Oral 20 mg/kg vs intravenous 5 mg/kg, calculated using AUClast; for CL, Mean / Vd / AUC(0-inf) / AUC(0-t) / clearance / MRT inf / half-life / Cmax / Tmax: mice, n=3; for Vd / AUC(0-inf) / AUC(0-t) / clearance / MRT inf / half-life / Cmax / Tmax: male, ICR, mouse, plasma; for Vd: iv; for AUC(0-inf): read-out: AUCinf, Mean; for AUC(0-t): read-out: AUClast, Mean; for clearance: read-out: CL, Mean (converted); for MRT inf: read-out: MRTinf, Mean; for half-life: read-out: t1/2, Mean (converted)
Description: Pharmacokinetic (PK) parameters of the Example compounds according to the present invention were determined using male ICR mice as follows (n=3).
Pharmacokinetic (PK) parameters were measured by non-compartmental analysis of plasma concentration-time curves using Kinetica™ 4.4.1 (Thermo Fisher Scientific, USA). Results thereof are shown in Table below and FIGS. 5A to 5C. In Table below, “F” parameter was calculated using AUClast, “N/A” indicates the phrase not applicable, and “NC” indicates the phrase not calculated.

Stability test in plasma [5] = format: in vitro ADME; set-up: Residue % (180 minutes elapsed), Mean: dose or concentration left out as unconfirmed; conditions: 37° C.
Description: as §1, with “of 5 mM” left out

[6] = Metabolic stability test in liver microsomes; format: in vitro ADME; conditions: 0.5 mg protein/mL, 37° C.
Description: as §2

[7] = 5 mg/kg, Intravenous administration, 5 mg/kg, read-out: Vss, Mean
[8] = 5 mg/kg, Intravenous administration, 5 mg/kg, read-out: Vz, Mean
[9] = Intravenous administration, 5 mg/kg

Compound | half-life at 5 mM (Stability test in plasma [1]) | Residue % (180 minutes elapsed), Mean (Stability test in plasma [1]) | Residue (%) after culturing for 30 min [2] | tumor growth inhibition (HeLa CCL2 tumor) | reduction in tumor weight compared with solvent control (HeLa CCL2 tumor) | IC50 (HeLa cells) | F, Mean [4] | CL, Mean ([4]; Oral administration, 20 mg/kg) | Vd [4, 7] | Vd [4, 8] | AUC(0-inf) [4, 9] | AUC(0-t) [4, 9] | clearance [4, 9] | MRT inf [4, 9] | half-life [4, 9] | Cmax ([4]; Oral administration, 20 mg/kg) | Tmax ([4]; Oral administration, 20 mg/kg) | AUC(0-inf) ([4]; Oral administration, 20 mg/kg) | AUC(0-t) ([4]; Oral administration, 20 mg/kg) | MRT inf ([4]; Oral administration, 20 mg/kg) | also measured
CCOCCn1c(Cl)c(/C=N/NC(=O)c2cc3cc(C)ccc3o2)c2ccccc21 [Example 4, (E)-N′-[(2-chloro-1-(2-ethoxyethyl)-1H-indol-3-yl]methylene}-5-methylbenzofuran-2-carbohydrazide] | > 180 min | 67.11% | 100.93 ± 11.79% | 56.71% | 57.1% | 180 nM | 4.8% | 69.14 L/h/kg | 0.98 L/kg | 1.88 L/kg | 1500 ng·h/mL | 1480 ng·h/mL | 55.7 mL/min/kg | 17.4 min | 23.4 min | 431 ng/mL | 15 min | 295 ng·h/mL | 285 ng·h/mL | 42 min | Solubility evaluation result ([3]; Solvent B 10%, Solvent C 70% (dimethylacetamide/Cremophor EL/20% HPbCD)): Soluble; half-life ([4]; Oral administration, 20 mg/kg): 24 min; Residue % (180 minutes elapsed), Mean (Stability test in plasma [5]; Human plasma): 49.41%; half-life at 5 mM (Stability test in plasma [5]; Human plasma): > 180 min; Residue % (180 minutes elapsed), Mean (Stability test in plasma [5]; Mouse plasma): 60.44%; half-life at 5 mM (Stability test in plasma [5]; Mouse plasma): > 180 min; Residue (%) after culturing for 30 min ([6]; Human, +NADPH): 15.76 ± 0.89%; Residue (%) after culturing for 30 min ([6]; Human, −NADPH): 77.60 ± 1.39%; Residue (%) after culturing for 30 min ([6]; Mouse, +NADPH): 5.48 ± 0.04%; Residue (%) after culturing for 30 min ([6]; Mouse, −NADPH): 47.95 ± 2.93%; Residue (%) after culturing for 30 min ([6]; Rat, +NADPH): 3.23 ± 0.55%; Residue (%) after culturing for 30 min ([6]; Rat, −NADPH): 69.63 ± 1.94%
CCOCCn1c(Cl)c(/C=N/NC(=O)c2cc3cc(C)ccc3o2)c2cc(OC)ccc21 [Example 8, (E)-N′-[(2-chloro-1-(2-ethoxyethyl)-5-methoxy-1H-indol-3-yl]methylene}-5-methylbenzofuran-2-carbohydrazide] | > 180 min | 49.25% | 98.98 ± 2.07% | 38.35% | 40.5% | 82 nM | 1.0% | 195.92 L/h/kg | 0.5 L/kg | 0.85 L/kg | 2390 ng·h/mL | 2380 ng·h/mL | 35 mL/min/kg | 14.4 min | 16.8 min | 93.9 ng/mL | 34.8 min | 103 ng·h/mL | 96.3 ng·h/mL | 54 min | Solubility evaluation result ([3]; Solvent B 20%, Solvent C 60% (dimethylacetamide/Cremophor EL/20% HPbCD)): Soluble; half-life ([4]; Oral administration, 20 mg/kg): 24 min; Residue % (180 minutes elapsed), Mean (Stability test in plasma [5]; Human plasma): 26.05%; half-life at 5 mM (Stability test in plasma [5]; Human plasma): > 180 min; Residue % (180 minutes elapsed), Mean (Stability test in plasma [5]; Mouse plasma): 74.16%; half-life at 5 mM (Stability test in plasma [5]; Mouse plasma): > 180 min; Residue (%) after culturing for 30 min ([6]; Human, +NADPH): 24.11 ± 0.46%; Residue (%) after culturing for 30 min ([6]; Human, −NADPH): 99.18 ± 1.92%; Residue (%) after culturing for 30 min ([6]; Mouse, +NADPH): 11.41 ± 2.47%; Residue (%) after culturing for 30 min ([6]; Mouse, −NADPH): 89.93 ± 6.72%; Residue (%) after culturing for 30 min ([6]; Rat, +NADPH): 4.55 ± 0.94%; Residue (%) after culturing for 30 min ([6]; Rat, −NADPH): 85.58 ± 3.34%
